Where a SMILES comes first, the peptide text is derived from it. Bridges are numbered along the chain shown (N, C = ends). [ ]: non-standard residue; d: D form. Pro(4R-NH2) = N[C@H]1CN[C@H](C(=O)O)C1; Dab = NCC[C@H](N)C(=O)O
Target: T1, FPR1 (Homo sapiens, UniProt P21462)
T1 construct: host or cells: CHO (PathHunter CHO-FPR1 β-arrestin cells)
T1 sequence (P21462 1-350): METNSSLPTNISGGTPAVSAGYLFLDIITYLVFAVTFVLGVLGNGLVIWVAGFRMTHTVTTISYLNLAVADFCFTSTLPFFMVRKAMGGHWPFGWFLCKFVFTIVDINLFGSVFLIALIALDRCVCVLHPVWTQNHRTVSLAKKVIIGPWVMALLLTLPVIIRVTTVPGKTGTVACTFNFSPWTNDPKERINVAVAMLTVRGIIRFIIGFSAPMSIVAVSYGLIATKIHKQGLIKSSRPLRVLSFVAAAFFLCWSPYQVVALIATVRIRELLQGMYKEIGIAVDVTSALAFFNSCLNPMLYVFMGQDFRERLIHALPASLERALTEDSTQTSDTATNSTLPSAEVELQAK
Assay: FPR1 β-arrestin recruitment assay (PathHunter CHO-FPR1, antagonistic mode)
Assay type: cell-based
Details: CHO FPR1 β-arrestin cells; antagonistic assay vs reference agonist fMLF at its EC80; 60 min preincubation
Method: 2.2 FPR1 β-Arrestin Recruitment Assay
The PathHunter CHO—FPR1 (DiscoverX) assay was performed according to the manufacturer's protocol. In brief, CHO FPR1 β-arrestin cells were seeded at a density of 9000 cells per well in 20 μl of Ham's F12 medium (Invitrogen) in black 384-well culture plates and incubated overnight at 37° C. in a humidified atmosphere with 5% CO2. The next day, serial dilutions of the β-hairpin peptidomimetics of this invention have been prepared in DMSO and subsequently diluted in HBSS buffer supplemented with 20 mM Hepes and 0.1% BSA.
For antagonistic assay, 5 μl of compound solution or buffer was added to the cells with a final DMSO concentration of 0.5% (v/v). The plate was incubated for 60 min at 37° C. with 5% CO2 before addition of […] of the reference agonist fMLF peptide (Sigma-Aldrich) at its EC80 concentration. After 90 min of incubation at 37° C. with 5% CO2, 15 μl of beta-Glo detection reagent (Promega) were added. Reaction was developed for 20 min at room temperature and chemiluminescence was measured with a Victor2V (Perkin Elmer) luminescence reader.

| IC50 | Compound |
| --- | --- |
| 82 ± 51 nM | CC[C@H](C)[C@@H]1NC(=O)[C@H]([C@@H](C)O)NC(=O)[C@H](Cc2c[nH]c3ccccc23)NC(=O)[C@H]2CCCN2C(=O)CNC(=O)[C@H](Cc2c[nH]cn2)NC(=O)[C@@H]2CSSC[C@H](NC1=O)C(=O)N[C@@H](Cc1ccc(O)cc1)C(=O)N[C@@H](CCC(=O)O)C(=O)N[C@@H](CCCCN)C(=O)N1CCC[C@@H]1C(=O)N1C[C@H](N)C[C@H]1C(=O)N[C@@H](Cc1ccc(O)cc1)C(=O)N[C@@H](Cc1c[nH]cn1)C(=O)N[C@@H](CCCCN)C(=O)N2 [compound 83, cyclo(-Tyr-His-Lys-Cys-His-Gly-^DPro-Trp-Thr-IIe-Cys-Tyr-Glu-Lys-^DPro-Pro((4R)NH2)-)] (cyclo(YHKCHG[dP]WTICYEK[dP][Pro(4R-NH2)]); disulfide 4-11) |
| 82 ± 29 nM | CC[C@H](C)[C@@H]1NC(=O)[C@H]([C@@H](C)O)NC(=O)[C@H](Cc2c[nH]c3ccccc23)NC(=O)[C@H]2CCCN2C(=O)CNC(=O)[C@H](Cc2c[nH]cn2)NC(=O)[C@@H]2CSSC[C@H](NC1=O)C(=O)N[C@@H](Cc1ccc(O)cc1)C(=O)N[C@@H](CCC(=O)O)C(=O)N[C@@H](CCN)C(=O)N1CCC[C@@H]1C(=O)N1CCC[C@H]1C(=O)N[C@@H](Cc1ccc(O)cc1)C(=O)N[C@@H](Cc1c[nH]cn1)C(=O)N[C@@H](CCCCN)C(=O)N2 [compound 56, cyclo(-Tyr-His-Lys-Cys-His-Gly-^DPro-Trp-Thr-Ile-Cys-Tyr-Glu-Dab-^DPro-Pro-)] (cyclo(YHKCHG[dP]WTICYE[Dab][dP]P); disulfide 4-11) |

Reference: patent publication US9957297B2, “Template-fixed peptidomimetics as inhibitors of FPR1” (POLYPHOR AG, priority 2011, dated 2018)
